# Data published in patent US10280156B2, “Heteroaromatic chalcone derivatives and their medical use” (Medizinische Universität Wien, priority 2014, dated 2019).
# What was measured:
# MEC1 = assay: Viability test (CellTiter-Blue/EZ4U) on MEC1 cells, 48 h; type: cell-based, human; conditions: Homo sapiens, MEC1, 48 h, 48 h incubation; nd = no significant cytotoxic activity up to 100 μM
# Method: (§1) JURKAT and CCRF-CEM (T-cell acute lymphoblastic leukemia), HL60 and K562 representing acute and chronic myeloid leukemia, respectively, the chronic lymphocytic leukemia cell line MEC-1, and the diffuse large B-cell lymphoma cell line U-2940 were cultured in Gibco RPMI 1640+GlutaMAX (Life Technologies, Carlsbad, Calif., USA) supplemented with 10% fetal bovine serum gold (FBS gold; PAA Laboratories, Pasching, Austria) and 1% PenStrep (100 U/ml penicillin and 100 μg/ml streptomycin; PAA Laboratories), and maintained at 37° C. in humidified atmosphere with 5% CO2. The diffuse large B-cell lymphoma cell line OCI-LY7 was cultured in Gibco IMDM+GlutaMAX and 25 mM HEPES (Life Technologies) containing 20% FBS gold and 1% PenStrep.
# (§2) All experiments with hematological cell lines were done using phenol red-free RPMI 1640+L-glutamine (PAA Laboratories) supplemented with 1% PenStrep and 10% FBS gold, except experiments with OCI-Ly7 which were carried out in Gibco IMEM+GlutaMAX and 25 mM HEPES containing 20% FBS gold and 1% PenStrep. Cells were incubated in triplicates with increasing concentrations of the compounds for 48 h, changes in viability were determined using the cell proliferation and cytotoxicity assays EZ4U (Biomedica Group, Austria) and CellTiter-Blue Cell Viability Assay (Promega, Madison, Wis., USA) following instructions of the manufacturers. IC50 values were calculated from two independent experiments using GraphPad Prism 5 software.
# (§3) Initially, compounds were biologically tested in six concentration steps (0.1 μM; 1 μM; 5 μM; 10 μM; 50 μM; and 100 μM) using the CellTiter-Blue Cell Viability Assay (Promega, Madison, Wis., USA) and an incubation time of 48 hours. […] IC50 values were calculated from at least two independent experiments with 3 replicates each. In order to evaluate the biologic activity of the new compounds, cytotoxicity was compared to that of fludarabine, an already approved drug for the treatment of various B-cell malignancies. […] Differences in IC50 values for the different cell types can be explained by the biological and genetic particularities of each subtype of B-cell Non-Hodgkin lymphoma (Stacchini A et al. Leukemia Res 1999, 23, 127-136; Sambade C et al. Int J Cancer 2006, 118, 555-563; Chang H et al. Leukemia lymphoma 1995, 19, 165-171; Tweeddale M E et al. Blood 1987, 69, 1307-1314; Tweeddale M et al. Blood 1989, 74, 572-578).
# U-2940 = assay: Viability test on U-2940 cells, 48 h; type: cell-based, human; conditions: 48 h incubation, nd = no significant cytotoxic activity up to 100 μM
# Method: as §1, §2, §3
# OCI-Ly7 = assay: Viability test on OCI-Ly7 cells, 48 h; type: cell-based, human; conditions: Homo sapiens, OCI-Ly7, 48 h, 48 h incubation; nd = no significant cytotoxic activity up to 100 μM
# Method: as §1, §2, §3
# M2-10B4 = assay: Viability test on mouse fibroblast cell line M2-10B4, 48 h; type: cell-based; conditions: 48 h incubation, mouse fibroblast cell line
# Method: as §2
# Structurally seen, the small molecule compound 1 represents a typical chalcone scaffold. It is characterized by an ortho-ethoxy-substituted phenyl part as ring A and a 2-naphthyl moiety symbolizing ring B. The focus of the present study was to guide the systematic identification of a growth inhibitor with specificity to neoplastic cells, as cytotoxicity towards healthy cells is mostly associated with adverse effects, which can be related to morbidity and mortality of the patient (Milligan D W et al. Brit J Haematol 2006, 135, 450-474). To discriminate in vitro between structural elements necessary for potent cytotoxicity towards tumor cells which, at the same time, clearly show less activity on normal cells, the compounds were additionally tested on the murine bone marrow fibroblast cell line M2-10B4. This cell line is regularly used as feeder layer when cultured with patient cells providing additional support and survival signals in particular in drug screens (Kurtova A V et al. Blood 2009, 114, 4441-4450).
# as §3
SMILES,melting point [°C],IC50 (MEC1) [µM],IC50 (U-2940) [µM],"IC50 (U-2940; Homo sapiens, U-2940, 48 h) [µM]",IC50 (OCI-Ly7) [µM],"IC50 (M2-10B4; Mus musculus, M210B4, 48 h) [µM]",IC50 (M2-10B4) [µM]
"CCOc1ccccc1C(=O)/C=C/c1ccc2ccccc2c1 [Compound 1, 3-(2-Napthyl)-1-(2-ethoxyphenyl)-2-propen-1-one]",96 to 97,0.06,4.43,2.43,0.06,7.8,–
CC(C)Oc1ccccc1C(=O)/C=C/c1ccc2ccccc2c1 [Compound 5],82 to 85,1.17,–,11.1,0.15,> 100,–
"CCOc1ccccc1C(=O)/C=C/c1cccc2ccccc12 [Compound 10, 1-(2-Ethoxyphenyl)-3-(1-naphthyl)-2-propen-1-one]",109 to 110,1.9,–,7.37,1.48,14.1,17.1
"CCOc1ccccc1C(=O)/C=C/c1ccc2c(c1)OCO2 [Compound 9, 3-(1,3-Benzodioxol-5-yl)-1-(2-ethoxyphenyl)-2-propen-1-one]",65 to 70,1.1,–,9.49,0.13,> 100,–
"CCOc1ccccc1C(=O)/C=C/c1ccc2sccc2c1 [Compound 13, 3-(5-Benzo[b]thienyl)-1-(2-ethoxyphenyl)-2-propen-1-one]",104 to 106,0.34,–,9.05,0.34,21.1,–
